From US20090325923A1, “NEW METHOD FOR THE TREATMENT OF INFLAMMATORY DISEASES” (TOPOTARGET SWITZERLAND SA, priority 2006, published 2009)

Experiments:
[1] = tested on: human monocyte-derived dendritic cells; experiment: Annexin-V and propidium iodide survival assay in dendritic cells; format: cell-based; details: overnight increasing doses of FK866, LPS 6 h, vs untreated cells
Protocol: (B) Human monocyte-derived dendritic cells were isolated and cultured overnight with increasing doses of FK866, and then stimulated with LPS for 6 h. At the end of the culture, the survival of cells was measured by Annexin-V and propidium iodide staining.
In another experiment, human monocyte-derived dendritic cells were isolated and cultured overnight with increasing doses of FK866, and then stimulated with LPS for 6 h.

[2] = tested on: RAW264.7 cell line; experiment: Intracellular NAD by enzymatic assay in RAW264.7 cells; format: cell-based, mouse; details: RAW264.7, overnight increasing doses of FK866, LPS 2 h
Protocol: (§1) (A) The mouse macrophage cell line RAW264.7 was cultured overnight with increasing doses of FK866, and then stimulated with LPS for 2 h. The culture supernatants were tested for TNF content by ELISA and intracellular NAD levels were measured by an enzymatic assay.
(§2) (B) RAW264.7 cells were cultured overnight in the presence of FK866 and the intracellular pool of NAD was restored by co-incubation of the cells with nicotinic acid (NA). Cells were then stimulated with LPS for 2 h and the culture supernatant was tested for TNF content by ELISA.
(§3) (C) RAW264.7 cells were cultured overnight in the presence of FK866 and NAD levels were maintained by culturing the cells in the presence of extracellular NAD. Cells were then stimulated with LPS for 2 h and the culture supernatant was tested for TNF content by ELISA.
(§4) This example illustrates the correlation between proinflammatory cytokine secretion and NAD levels in the cell. The mouse macrophage cell line RAW264.7 was cultured overnight with increasing doses of FK866, and then stimulated with LPS for 2 h. The culture supernatants were tested for TNF content by ELISA and intracellular NAD levels were measured by an enzymatic assay.
(§5) In another experiment, RAW264.7 cells were cultured overnight in the presence of FK866 and the intracellular pool of NAD was restored by co-incubation of the cells with nicotinic acid. Nicotinic acid is a precursor of NAD, but its transformation into NAD is not dependent upon NMPRT and is thus not inhibited by FK866. Cells were then stimulated with LPS for 2 h and the culture supernatant was tested for TNF content by ELISA.
(§6) In another experiment, RAW264.7 cells were cultured overnight in the presence of FK866 and NAD levels were maintained by culturing the cells in the presence: of extra-cellular NAD. Cells were then stimulated with LPS for 2 h and the culture supernatant was tested for TNF content by ELISA.

[3] = tested on: Human monocytic cell line THP-1; experiment: LPS-stimulated cytokine secretion by ELISA in THP-1 cells; format: cell-based; details: THP-1, overnight increasing doses of FK866, LPS 6 h
Protocol: Human monocytic cell line THP-1 was cultured overnight in the presence of graded doses of nicotinic acid (NA), a precursor of NAD, and then stimulated with lipopolysaccharide (LPS) from gram-negative bacteria for 2 h. The cell supernatant was tested for tumor necrosis factor (TNF) content by ELISA and the intracellular pool of NAD was measured by an enzymatic assay.
Human monocytic cell line THP-1, human peripheral blood mononuclear cells (PBMC), human monocyte-derived dendritic cells, or mouse peritoneal macrophages were isolated and cultured overnight with increasing doses of FK866, and then stimulated with LPS for 6 h. The culture supernatants were tested for TNF and IL-6 content by ELISA
THP-1 cells were incubated in the presence of 10 nM FK866 and graded doses of NMN. Cells were further stimulated with LPS and intracellular NAD levels and TNFα secretion were determined using standard assays.
This example illustrates the direct relationship between NAD levels in cells and pro-inflammatory cytokine secretion. Human monocytic cell line THP-1 was cultured overnight in the presence of nicotinic acid, a precursor of NAD, and then stimulated with lipopolysaccharide (LPS) from gram-negative bacteria for 2 h. The cell supernatant was tested for tumor necrosis factor (TNF) content by ELISA and the intracellular pool of NAD was measured by an enzymatic assay.
This example describes the inhibition of pro-inflammatory cytokines production by the competitive small molecular weight compound inhibitor of NMPRT, ((E)-N-[4-(1-benzoylpiperidin-4-yl)butyl]-3-(pyridin-3-yl)acrylamide, designated FK866). Human monocytic cell line THP-1, human peripheral blood mononuclear cells (PBMC), human monocyte-derived dendritic cells, or mouse peritoneal macrophages were isolated and cultured overnight with increasing doses of FK866, and then stimulated with LPS for 6 h. The culture supernatants were tested for TNF and IL-6 content by ELISA.
This example illustrates that NAMPT is the only molecular target of FK866. […]

[4] = tested on: RAW264.7 cell line; experiment: LPS-stimulated TNF secretion by ELISA in RAW264.7 cells; format: cell-based, mouse
Protocol: The murine RAW264.7 cell line was stimulated with LPS in the presence of FK866. TNF protein concentrations were determined by ELISA (above panel) while mRNA levels were determined by RT-PCR (below panel).
as §1, §2, §3
This example illustrates that FK866 inhibits TNFα secretion at a posttranscriptional level. The murine RAW 264.7 cell line was incubated in the presence of graded doses of FK866, stimulated with microbial products, and levels of TNFα released in the supernatant evaluated by ELISA.
as §4, §5, §6

SMILES: O=C(/C=C/c1cccnc1)NCCCCC1CCN(C(=O)c2ccccc2)CC1 [FK866, (E)-N-[4-(1-benzoylpiperidin-4-yl)butyl]-3-(pyridine-3-yl)-acrylamide]
- survival of cells (Annexin-V and propidium iodide staining) [1]: no difference in survival
- intracellular NAD levels [2]: inhibition of intracellular NAD levels
- cytokine secretion (TNF and IL-6) [3]: inhibited cytokine secretion in a dose-dependent fashion
- TNFα secretion ([4]; RAW 264.7, graded doses of FK866, stimulated with LPS, ELISA): strongly inhibited
- TNF production ([4]; RAW264.7, overnight increasing doses of FK866, LPS 2 h): inhibition of TNF production
